According to ChEMBL document CHEMBL1133613, “1-[4-(3-Phenylalkyl)phenyl]-2-aminopropanes as 5-HT(2A) partial agonists” (J Med Chem, 2000):

Columns and labels:
[1] = target: Serotonin receptor 2a and 2c (5HT2A and 5HT2C) (Rattus norvegicus) (UniProt P08909+P14842); test: Relative affinities for rat 5-HT2C receptors and 5-HT2A receptors; type: protein assay
[2] = target: T1, 5-hydroxytryptamine receptor 2C (Rattus norvegicus, UniProt P08909); test: Displacement of [3H]mesulergine from A9 cells stably expressing rat 5-hydroxytryptamine 2C receptor; type: cell-based
T1 sequence (P08909 whole entry): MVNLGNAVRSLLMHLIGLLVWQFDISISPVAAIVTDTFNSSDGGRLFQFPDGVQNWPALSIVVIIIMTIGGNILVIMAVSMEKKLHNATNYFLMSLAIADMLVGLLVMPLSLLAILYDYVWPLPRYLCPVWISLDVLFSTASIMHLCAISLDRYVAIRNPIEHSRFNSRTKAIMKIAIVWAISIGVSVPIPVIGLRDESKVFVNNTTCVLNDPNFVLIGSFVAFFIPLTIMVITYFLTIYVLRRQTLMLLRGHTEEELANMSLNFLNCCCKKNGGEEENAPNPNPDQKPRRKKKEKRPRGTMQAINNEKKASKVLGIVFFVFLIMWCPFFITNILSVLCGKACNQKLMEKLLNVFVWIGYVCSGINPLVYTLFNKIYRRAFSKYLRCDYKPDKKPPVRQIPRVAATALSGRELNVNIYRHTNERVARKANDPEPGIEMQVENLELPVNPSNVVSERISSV

[3] = target: 5-hydroxytryptamine receptor 2A (Rattus norvegicus, UniProt P14842); test: Displacement of [3H]ketanserin from NIH3T3 cells stably expressing rat 5-hydroxytryptamine 2A receptor; type: cell-based
5-hydroxytryptamine receptor 2A, sequence (P14842 whole entry): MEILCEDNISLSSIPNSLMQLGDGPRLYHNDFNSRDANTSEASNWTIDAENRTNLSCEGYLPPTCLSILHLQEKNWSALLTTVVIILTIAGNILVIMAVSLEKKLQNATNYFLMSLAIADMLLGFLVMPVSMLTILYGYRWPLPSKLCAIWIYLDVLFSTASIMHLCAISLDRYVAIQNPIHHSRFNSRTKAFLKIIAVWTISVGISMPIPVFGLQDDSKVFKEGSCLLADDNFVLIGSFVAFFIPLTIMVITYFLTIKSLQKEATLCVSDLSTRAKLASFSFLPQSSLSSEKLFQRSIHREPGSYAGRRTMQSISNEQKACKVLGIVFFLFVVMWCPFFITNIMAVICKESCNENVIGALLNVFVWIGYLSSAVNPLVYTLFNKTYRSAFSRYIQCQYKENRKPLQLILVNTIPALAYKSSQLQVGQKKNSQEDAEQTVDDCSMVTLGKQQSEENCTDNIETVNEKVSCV

Serotonin receptor 2a and 2c (5HT2A and 5HT2C) (Rattus norvegicus), sequence (P14842 whole entry, looked up, one chain of several): as the sequence (P14842 whole entry) above

| Structure (SMILES) | Selectivity [1] | Ki [2] | Ki [3] |
| --- | --- | --- | --- |
| COc1c(CCCc2ccccc2)ccc(CC(C)N)c1OC (configuration not stated) | 19.8 | 79 nM | 4 nM |
| COc1cc(CCc2ccccc2)c(OC)cc1CCN | 2 | 76 nM | 37 nM |
| COc1cc(C[C@@H](C)N)cc(OC)c1 |  | > 10000 nM | > 10000 nM |
| COc1cc(CCCCc2ccccc2)c(OC)cc1CCN | 0.2 | 25 nM | 115 nM |
| COc1cc(CC(C)N)c(OC)cc1CCCc1ccccc1 (configuration not stated) | 1.7 | 50 nM | 30 nM |
| COc1ccccc1CC(C)N (configuration not stated) |  | > 10000 nM | > 10000 nM |
| COc1ccc(OC)c(CCN)c1 |  | 5520 nM | 3000 nM |
| CC(N)Cc1ccc(CCCc2ccccc2)cc1 (configuration not stated) | 6.8 | 530 nM | 78 nM |
| NCCc1ccc(CCCc2ccccc2)cc1 | 8.9 | 525 nM | 60 nM |
| COc1cccc(CC(C)N)c1 (configuration not stated) |  | > 10000 nM | > 10000 nM |
| COc1cc(CCCc2ccccc2)cc(OC)c1CC(C)N (configuration not stated) | 13 | 39 nM | 3 nM |
| COc1cc(CCCc2ccccc2)ccc1CC(C)N (configuration not stated) | 11.1 | 89 nM | 8 nM |
| COc1cc(CC(C)N)ccc1CCCc1ccccc1 (configuration not stated) | 7.9 | 135 nM | 17 nM |
| COc1cc(CC(C)N)c(OC)cc1CCCCc1ccccc1 (configuration not stated) | 0.8 | 6 nM | 8 nM |
| COc1cc(CC(C)N)c(OC)cc1CCCc1ccc(Cl)cc1 (configuration not stated) | 1.3 | 16 nM | 12 nM |
| COc1ccc(CCCc2cc(OC)c(CC(C)N)cc2OC)cc1 (configuration not stated) | 0.9 | 24 nM | 28 nM |
| COc1cc(CC(C)N)c(OC)cc1CCc1ccccc1 (configuration not stated) | 1.5 | 140 nM | 95 nM |
| COc1ccc(OC)c(CC(C)N)c1 (configuration not stated) |  | > 10000 nM | 4720 nM |
| COc1cccc(CC(C)N)c1OC (configuration not stated) |  | > 10000 nM | 4280 nM |
| COc1cc(CC(C)N)cc(OC)c1CCCc1ccccc1 (configuration not stated) | 10 | 40 nM | 4 nM |
| COc1cc(CCN)c(OC)cc1Br |  |  | 16 nM |
| COc1cc(CC(C)N)cc(OC)c1Br (configuration not stated) |  | 570 nM | 210 nM |
| COc1cc(CCCc2ccccc2)c(OC)cc1CCN | 0.2 | 28 nM | 150 nM |
| COc1cccc(OC)c1CC(C)N (configuration not stated) |  | > 10000 nM | > 10000 nM |
